Reference: patent publication US6117875A, “Pyrido (2,3-B) pyrazine derivatives” (Fujisawa Pharmaceutical Co., Ltd., priority 1995, dated 2000)

Assays:
[1] = target: U937 phosphodiesterase IV (PDE IV); assay: Inhibition of U937 phosphodiesterase IV (PDE IV); type: biochemical; conditions: PDE IV preparation from U937 cells, [3H]-cAMP, 10 μM CI-930 (PDE III inhibitor) present, 30°C, pH 8.0
Method: Harvested U937 was freezed in -80pbC. and throwed to destroy the cell body. The pellet of destroyed cell was washed by Phosphate-buffered saline (PBS).
The washed cell pellet was homogenized with Dounce homogenizer (20 strokes) in homogenizing buffer (0.5% deoxycholate [DOC], 5 mM 2-mercaptoethanol, 1 μM leupeptin, 100 μM PMSF, 20 μM p-tosyl-L-lysine-chloromethyl ketone [TLCK] in PBS). The homogenate was centrifuged at 100,000 g×90 minutes (4pbC.) and the supernatant containing PDE IV activity was dialyzed against dialysis buffer, which was the same component as homogenizing buffer without DOC. The dialyzed supernatant of homogenate was stored in freezer (-80pbC.) as PDE IV enzyme preparation.
Enzyme preparation was diluted in assay buffer (10 mM Tris-HCl, 5 mM MgCl, 1 mM 2-Mercaptoethanol [pH 8.0]). In advance the rate of dilution was choosen every new lot of homogenizing preparation. For blank, a part of the enzyme preparation was boiled for 10 minutes. […]
The reaction tube was preincubated in a water bath (30pbC.) for 5 minutes, then 100 μl [^3 H]-cAMP (37.0 MBq/ml [^3 H]-cAMP: 4 μM cold cAMP=1:800) was added thereto. […] The mixture was centrifuged at 1000 rpm×5 minutes, and then 500 μl of the supernatant was added to 10 ml scintillation fluid in appropriate vial, vortexed, and counted for [^3 H].
The inhibitory activity was calculated according to the following equation: [formula]

[2] = test system: TNF-α production in human mononuclear cells; assay: Inhibition on TNF-α production in human mononuclear cells; type: cell-based; conditions: TNF-α by ELISA, human MNC, 1 μg/ml LPS (E. coli), 37°C, 16 hours
Method: Blood was drawn from healthy volunteers with heparin. The mononuclear cell (MNC) fraction was obtained by gradient centrifugation (1800 rpm, 15 minutes), diluted with the same volume of RPMI-1640 culture medium, over Ficoll-Paque (Pharmacia LKB Biotechnology). MNC were washed twice with RPMI-1640. Then, MNC were resuspended in RPMI-1640 culture medium supplemented with 2 mM L-glutamine and 1% fetal bovine serum. MNC were incubated at 37pbC. for 16 hours in 96-well micro culture plate at a concentration of 3×10^5 cells/well with or without 1 μg/ml lipopolysaccharide (LPS) (from E. coli) and various amounts of test compound. At the end of incubation, the supernatant was obtained and its TNF-α active was measured by enzyme-linked immunosorbent assay (ELISA). ELISA was performed with TNF-α ELISA kit (Otsuka Pharmaceutical Co., Ltd.).

CC(=O)Nc1ccc(/C=C/C(=O)Nc2cccc(-c3cccc(-n4c(=O)c(Cc5cccnc5)nc5cccnc54)c3)c2)cn1 [Test compound (a), 4-[3-[3-[(E)-3-(6-acetamido-3-pyridyl)acryloylamino]phenyl]phenyl]-2-(3-pyridylmethyl)-3-oxo-3,4-dihydropyrido[2,3-b]pyrazine]
IC50 [1]: 16 nM
IC50 [2]: 24 nM
